For this test, the target named is T1, Recombinant BTK (Homo sapiens, UniProt Q06187).
T1 construct: purchased Life Technologies (Carlsbad, CA) PV3587
In words: Preparation of DB-BTK / QB-BTK reference standards: covalent reaction of recombinant BTK with excess drug or quencher. In kind it is biochemical. Particulars: recombinant BTK 5.9 μM, excess amount of drug, RT for 1 h.

The structures appear in SMILES notation.

T1 sequence (Q06187 whole entry): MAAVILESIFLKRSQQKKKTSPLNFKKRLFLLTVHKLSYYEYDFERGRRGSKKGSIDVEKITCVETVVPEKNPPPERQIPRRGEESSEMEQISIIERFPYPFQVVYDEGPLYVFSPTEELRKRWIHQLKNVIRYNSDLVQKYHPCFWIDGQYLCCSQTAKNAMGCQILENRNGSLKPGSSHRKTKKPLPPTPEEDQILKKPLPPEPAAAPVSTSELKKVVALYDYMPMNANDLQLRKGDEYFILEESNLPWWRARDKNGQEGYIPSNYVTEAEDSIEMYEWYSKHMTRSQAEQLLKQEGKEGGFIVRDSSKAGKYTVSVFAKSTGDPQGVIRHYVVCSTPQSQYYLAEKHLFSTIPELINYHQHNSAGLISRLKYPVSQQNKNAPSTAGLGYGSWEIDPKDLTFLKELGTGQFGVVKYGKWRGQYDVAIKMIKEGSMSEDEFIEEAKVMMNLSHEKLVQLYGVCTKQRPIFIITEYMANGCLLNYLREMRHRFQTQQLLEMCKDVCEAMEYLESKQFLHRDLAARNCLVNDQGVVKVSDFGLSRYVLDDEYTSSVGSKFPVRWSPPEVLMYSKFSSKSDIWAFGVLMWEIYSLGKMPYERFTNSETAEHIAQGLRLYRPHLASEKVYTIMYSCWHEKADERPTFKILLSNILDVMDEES
Experimental: Recombinant BTK (5.9 μM, 200 μL) was combined with 400 μL of PBS, and then spiked with 15 μL of 1.0 mg/mL drug solution (compound shown in FIG. 1A) in acetonitrile (2701 μM drug, 15 μL). The solution was then incubated at RT for 1 h, resulting in a DB-BTK concentration of 1919 nM.
Recombinant BTK (5.9 μM, 200 μL) was combined with 400 μL of PBS, and then spiked with 15 μL of 1.0 mg/mL quencher solution (compound shown in FIG. 1B) in acetonitrile (2806 μM quencher, 15 μL). The solution was incubated at RT for 1 h, resulting in a QB-BTK concentration of 1919 nM.

As for `CC#CC(=O)N[C@H]1CCCN(c2c(F)cc(C(N)=O)c3[nH]c(C)c(C)c23)C1` [compound shown in FIG. 1A], the “conversion of free BTK to DB-BTK” value was about 100%.

The values above are taken from patent US12085564B2, “Assay to determine in vivo receptor occupancy” (BRISTOL-MYERS SQUIBB COMPANY, priority 2018, dated 2024).
